From US20090247558A1, “USE OF THE CRH (CORTICOTROPIN RELEASING HORMONE) - UCN (UROCORTIN) SYSTEM IN THE TREATMENT OF INFLAMMATORY DISEASES” (priority 2002, published 2009)
Where a chain is given by its changes, count along the chain named. Entries after “also recorded” stand apart in the source; their conditions may differ. No end group written: not given here.

Legend:
[1] = target: T1, CRH-R2 receptor (Mus musculus, UniProt Q60748); conditions: cited from earlier work
T1 construct: monocyte/macrophage cells which express both the CRH-R1 and the CRH-R2 receptors on the surface; endogenous in cells; host or cells: macrophages
T1 sequence (Q60748 whole entry): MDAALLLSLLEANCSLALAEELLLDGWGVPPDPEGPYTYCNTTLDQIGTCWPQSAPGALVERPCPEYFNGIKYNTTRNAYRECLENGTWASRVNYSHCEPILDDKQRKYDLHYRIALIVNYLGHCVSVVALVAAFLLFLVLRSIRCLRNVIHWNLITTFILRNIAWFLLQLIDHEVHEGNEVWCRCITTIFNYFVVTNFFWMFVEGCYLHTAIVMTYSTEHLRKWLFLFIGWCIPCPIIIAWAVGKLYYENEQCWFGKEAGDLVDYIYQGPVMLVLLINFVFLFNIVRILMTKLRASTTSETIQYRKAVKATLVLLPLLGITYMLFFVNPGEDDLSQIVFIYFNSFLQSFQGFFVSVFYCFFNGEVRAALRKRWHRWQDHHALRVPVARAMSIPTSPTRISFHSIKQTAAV

[2] = tested on: Balb/c mice; test: Determination of the LD50 of LPS i.p.; assay type: in vivo
[3] = tested on: LPS-induced endotoxin shock in Balb/c mice
Protocol: Male 20- to 25-g Balb/c mice 8 to 10 weeks old were used. They were kept in our animal facility for at least one week prior to each experiment to allow adjustment and confirmation of their health. Each animal received rodent laboratory chow and water ad libitum. The CRH-R1 antagonist used was provided by the Pediatric and Reproductive Endocrinology Branch, NICHD, NIH, Bethesda, Md. Antalarmin was initially dissolved into 100% ethanol at a concentration of 200 mg/ml and then diluted in a 1:1 ratio with Cremaphor EL (Sigma), and finally brought to a working stock of 2 mg/ml antalarmin in 10% ethanol and 10% Cremaphor EL in sterile water. E coli lipopolysaccharide (serotype 0111:B4, cat. # L2630) and Salmonella enteritidis lipopolysaccharide (cat. # L6011) were purchased from Sigma. The antibodies and the reagents for the TNF-α, IL-1β and IL-6 determination were purchased from R&D (NE, USA).
For the determination of the LD50 groups composed of five mice were injected intraperitoneally (i.p) with either 200, 400, 600, 700 or 1000 μg/mouse of Salmonella-derived LPS (Sigma) dissolved in PBS at a concentration of 10 mg/ml. Survival of animals was monitored for a period of seven days. The same protocol was used for E. coli-derived LPS (O111:B4). To determine the effect of antalarmin in the survival of mice injected with LPS, 40 mice were divided in four different groups; the first group received antalarmin at a concentration of 20 mg/kg of body weight; the second received antalarmin at 20 mg/kg of body weight and LPS at a concentration of 0.7 mg per 25 g of body weight; the third group received LPS and the antalarmin diluent while the fourth group received the antalarmin diluent alone.

[4] = target: T2, CRH-R1 receptor (Rattus norvegicus, UniProt P35353); conditions: PC12 rat pheochromocytoma cells; cited from earlier work
T2 construct: endogenous in cells; host or cells: PC12 rat pheochromocytoma cells
T2 sequence (P35353 24-415): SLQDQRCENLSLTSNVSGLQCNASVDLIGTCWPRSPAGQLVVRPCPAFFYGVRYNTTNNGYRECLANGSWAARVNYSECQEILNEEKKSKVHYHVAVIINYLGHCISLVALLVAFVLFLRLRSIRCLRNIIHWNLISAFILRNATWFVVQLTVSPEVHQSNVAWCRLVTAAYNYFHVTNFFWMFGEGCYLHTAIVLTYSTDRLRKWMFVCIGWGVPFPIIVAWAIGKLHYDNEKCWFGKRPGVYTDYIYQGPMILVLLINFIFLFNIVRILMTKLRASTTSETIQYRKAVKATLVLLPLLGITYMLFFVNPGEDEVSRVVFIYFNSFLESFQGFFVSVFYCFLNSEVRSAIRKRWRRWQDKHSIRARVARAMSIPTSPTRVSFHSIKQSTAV

[5] = target: T3, CRH-R1 receptor (Mus musculus, UniProt P35347); conditions: cited from earlier work
T3 construct: monocyte/macrophage cells which express both the CRH-R1 and the CRH-R2 receptors on the surface; endogenous in cells; host or cells: macrophages in vitro (RAW 264.7 or Balb/c peritoneal macrophages, inferred)
T3 sequence (P35347 24-415): T2 sequence (P35353 24-415) with R6Q, N9S, T13A, V95I, H229Y

[6] = tested on: LPS-induced endotoxin shock in Balb/c mice; test: Serum proinflammatory cytokines (ELISA) in LPS-induced endotoxin shock; assay type: in vivo; conditions: for TNF-α level / IL-6 level / IL-1β level: antalarmin pre-treated vs LPS alone; for IL-6 level / IL-1β level: 4 hours after LPS; for IL-1β level: p=0.013
Protocol: (§1) Each time point and treatment group was composed of five animals per experiment. Sera were collected and frozen until used for cytokine determination by ELISA according to manufacturer (R&D, NE, USA). Similarly, cell culture supernatants were collected 24 hours following stimulation and stored at −70° C. until analyzed. Corticosterone was measured by RIA in serum collected 1 hour following LPS administration. Five animals per treatment were used. Sera were frozen at −70° C. and analyzed as recommended by the manufacturer (ICN, USA).

[7] = tested on: RAW264.7 cells; test: LPS-induced cytokine secretion from RAW264.7 macrophages (ELISA); assay type: cell-based, mouse
Protocol: (§2) RAW 264.7 cells were cultured in Dulbecco's Modified Eagle Medium supplemented with 10% fetal calf serum (FCS), 10 mM L-glutamine, 100 U/ml penicillin, 0.1 mg/ml streptomycin (all purchased by Gibco), at 5% CO2 and 37° C. Cells were plated in 25 cm^2 flasks one day prior to stimulation. Cells were then stimulated with 10 μg/ml Ecoli-derived LPS (serotype 0111:B4, cat. # L2630, Sigma) and recombinant CRH (Sigma) at a concentration of 10^−8 M.
as §1, with “Serum from trunk blood was collected as follows: a) for the determination of TNF-α 1 hour after LPS administration and b) at 4 hours for the determination of IL-1β or IL-6 levels. Each” for “Each”

[8] = tested on: RAW264.7 cells; test: Cytokine mRNA in RAW264.7 cells, semi-quantitative RT-PCR; assay type: cell-based, mouse
Protocol: as §2
(§3) Total cellular RNA was isolated using Trizol reagent (Gibco). Following reverse transcription (Thermoscript RT, Invitrogen), 1 μl of the cDNA product was amplified by PCR at 33 cycles. […] Intensity of the bands was quantified using TINAscan software.
(§4) Primers for actin were: sense, 5′-TCAGAAGAACTCCTATGTGG-3′; antisense, 5′-TCTCTTTGATGTCACGCACG-3′, giving a 499 bp product; for Tnf-α were: 5′-CACGCTCTTCTGTCTACTGAACTTCG-3′; 5′-GGCTGGGTAGAGAATGGATGAACACC-3′, giving a 590 bp product; for IL-1β were 5′-GGATGAGGACATGAGCACCT-3′ and 5′-TCCATTGAGGTGGAGAGCTT-3′, resulting in a 196 bp product; for IL-6,5′-TGAAGTTCCTCTCTGCAAGAGACT-3′,5′-TGA GGA AGG CCG TGG TTG T-3′, giving a 200 bp product. […] The quantitation was performed using the “TI-NAscan” software. […]

[9] = tested on: thioglycollate-elicited peritoneal macrophages; test: Cytokine mRNA in thioglycollate-elicited peritoneal macrophages, RT-PCR; assay type: cell-based, Balb/c mice
Protocol: A 4% thioglycollate solution was prepared and autoclaved 2 days prior to administration. 1.5 ml of the thioglycollate solution was injected intraperitoneally in BALB/c mice and peritoneal macrophages were isolated by lavage of the peritoneal cavity with Dulbecco's Modified Medium. Cells were then cultured in DMEM supplemented with 10% FCS, 10 mM L-glutamine, 100 U/ml penicillin, 0.1 mg/ml streptomycin (Gibco). Cells were plated at a concentration of 5×10^5/ml and maintained in culture 24 hours prior to stimulation.
as §3, §4

[10] = CRH 1×10^−8 M plus LPS 10 μg/ml, 24 hours, vs LPS alone, p=0.04

In the case of sauvagine-30, the “effect on Urocortin / Urocortin II induced macrophage apoptosis” value [1] is given as “completely abolishes”.

In the case of Lipopolysaccharide [LPS], the animals survived ([2]; LPS 0.2 mg/25 g i.p.) is reported as “One hundred”, the animals survived ([2]; LPS 0.4 mg/25 g i.p.) is reported as 80% and the animals survived ([2]; LPS 0.6 mg/kg i.p. (so in the source)) is reported as 40%. The animals survived ([2]; LPS 0.7 mg/25 g i.p.) was “none”, the animals survived ([2]; LPS 1 mg/25 g i.p.) was “none” and the LD100 ([2]; LPS i.p., mice) was ≥ 0.7 mg per 25 g of body weight. It also gave an LD50 ([2]; LPS i.p., mice, survival monitored seven days) of 0.5 mg per 25 g body weight.

In the case of “Urocortin II (IVLSLDVPIGLLQILLEQARARAAREQATTNARILARVGHC; ends and bridges not checked; UniProt Q96RP3 72-112, looked up) [CRH-related peptide that induces macrophage apoptosis via the CRH-R2 receptor]”, the apoptosis on macrophages [1] is listed as “induce apoptosis”.

In the case of `CCCCN(CC)c1nc(C)nc2c1c(C)c(C)n2-c1c(C)cc(C)cc1C` [antalarmin], the “mice still alive at 18 h” value ([3]; E coli-derived LPS 0.7 mg/25 g, antalarmin pre-treatment, all animals with LPS alone had died) is reported as 72%, the overall survival ([3]; E coli-derived LPS, in the presence of antalarmin, p=0.002, observed 7 days) is reported as “significantly improved” and the “animals that had died at 18 hours” value ([3]; Salmonella enteritidis-derived LPS 0.7 mg/25 g i.p., antalarmin 20 mg/kg IP 1.5 h prior to LPS, LPS alone 60%) is reported as 20%. The “effect on CRH-mediated effects (p38, Fas ligand, apoptosis)” value [4] was “blocks all”, the “effect on the enhancing effect of CRH” value ([5]; macrophages in vitro, LPS) was “blocked completely” and the TNF-α level ([6]; 1 h after LPS, p=0.001) was “significantly reduced”. The TNF-α level ([6]; 2 hours after LPS injection, p<0.001) was “significantly lower”, the IL-6 level ([6]; p<0.001) was “significantly lower” and the IL-6 level ([6]; p<0.001, listed as Antalarmin) was “significantly reduced”. The IL-1β level [6] was “significantly lower”, the IL-1β level ([6]; listed as Antalarmin) was “significantly reduced” and the “IL-6 level of LPS treated animals compared with LPS plus antalarmin treated mice” value ([6]; 6 hours after LPS, p<0.001, value describes LPS alone relative to LPS plus antalarmin) was “significantly higher”. The “IL-1β level of LPS treated animals compared with LPS plus antalarmin treated mice” value ([6]; 6 hours after LPS, p<0.01, value describes LPS alone relative to LPS plus antalarmin) was “significantly higher”.

For corticotropin-releasing hormone [CRH], the Fas ligand production [4] is given as “stimulates”, the apoptosis [4] is given as “induces apoptosis” and the “p38 mitogen-activated protein kinase” value [4] is given as “activates”. The “inflammatory response to lipopolysaccharide (LPS) of macrophages” value ([5]; in vitro) was “enhances”, the “LPS-induced IL-1β secretion” value ([7]; CRH 1×10^−8 M plus LPS 10 μg/ml, 24 hours, vs LPS alone, p=0.01) was “potentiates; also recorded: significantly augmented” and the “LPS-induced IL-6 secretion” value [7, 10] was “potentiates; also recorded: significantly augmented”. For the same compound, the “LPS-induced TNF-α secretion” value [7, 10] was “significantly higher; also recorded: significantly augmented”, the “cytokine secretion, CRH alone” value ([7]; CRH 1×10^−8 M without LPS) was “only a minimal effect” and the “LPS-induced cytokine transcription (IL-1β, TNF-α, IL-6 mRNA)” value ([8]; CRH plus LPS, densitometry normalized versus actin) was “further potentiates; also recorded: strongly augmented”. The “transcription of IL-1β, TNF-α, or IL-6, CRH alone” value ([8]; CRH without LPS) was “induces expression; also recorded: minimal transcription”, the “LPS-induced pro-inflammatory cytokine expression” value ([9]; CRH plus LPS) was “augments; also recorded: significantly augmented” and the “TNF-α, IL-1β or IL-6 transcription, CRH alone” value ([9]; CRH without LPS) was “unable to induce”.
